Six compounds from patent publication US6458796B1, “Dihydro-[1,2,3]triazolo-[4,5-d]pyrimidin-7-one” (Bayer Aktiengesellschaft, priority 1998, dated 2002) can be followed below.

In one series the target is T1, c-GMP-stimulated PDE II (UniProt P14099).
T1 sequence (P14099 1-921): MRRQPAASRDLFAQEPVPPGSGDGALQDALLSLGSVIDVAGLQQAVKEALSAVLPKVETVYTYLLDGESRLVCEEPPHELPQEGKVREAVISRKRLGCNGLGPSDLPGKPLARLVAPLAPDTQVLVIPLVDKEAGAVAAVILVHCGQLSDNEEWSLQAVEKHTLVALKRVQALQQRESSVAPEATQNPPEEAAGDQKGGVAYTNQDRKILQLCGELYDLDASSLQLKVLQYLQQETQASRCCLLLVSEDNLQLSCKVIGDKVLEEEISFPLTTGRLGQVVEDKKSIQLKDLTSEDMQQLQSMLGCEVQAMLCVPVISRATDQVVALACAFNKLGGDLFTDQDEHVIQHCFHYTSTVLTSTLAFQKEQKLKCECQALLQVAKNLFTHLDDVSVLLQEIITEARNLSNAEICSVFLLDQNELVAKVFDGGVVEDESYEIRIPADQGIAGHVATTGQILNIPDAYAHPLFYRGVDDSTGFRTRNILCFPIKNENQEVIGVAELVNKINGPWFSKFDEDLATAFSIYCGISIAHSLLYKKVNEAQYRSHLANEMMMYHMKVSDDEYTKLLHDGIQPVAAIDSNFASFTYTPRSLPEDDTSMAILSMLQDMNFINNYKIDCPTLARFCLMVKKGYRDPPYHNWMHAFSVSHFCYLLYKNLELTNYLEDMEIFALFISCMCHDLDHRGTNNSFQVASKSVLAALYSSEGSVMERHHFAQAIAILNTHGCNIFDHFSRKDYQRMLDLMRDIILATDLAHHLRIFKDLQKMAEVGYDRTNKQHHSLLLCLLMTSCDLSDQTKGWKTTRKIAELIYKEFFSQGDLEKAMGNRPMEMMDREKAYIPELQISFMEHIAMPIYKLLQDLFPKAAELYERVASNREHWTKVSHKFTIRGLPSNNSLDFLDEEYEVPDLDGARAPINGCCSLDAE
The series can be described thus: Inhibition of the phosphodiesterases in vitro: PDE II. It counts as biochemical, porcine or bovine (heart myocardium). Particulars: 3HcAMP substrate, 10^-6 mol/l cGMP added. How it is done: (§1) The c-GMP-stimulated PDE II, the c-GMP-inhibited PDE III and the cAMP-specific PDE IV were isolated either from porcine or bovine heart myocardium. The Ca^2+-calmodulin-stimulated PDE I was isolated from porcine aorta, porcine brain or, preferably, from bovine aorta. The c-GMP-specific PDE V was obtained from porcine small intestine, porcine aorta, human platelets and, preferably, from bovine aorta. Purification was carried out by anion exchange chromatography over MonoQ^R Pharmacia, essentially following the method of M. Hoey and Miles D. Houslay, Biochemical Pharmacology, Vol. 40, 193-202 (1990) and C. Lugman et al. Biochemical Pharmacology Vol. 35 1743-1751 (1986).
(§2) The enzyme activity is determined using a test mixture of 100 μl in 20 mM Tris/HCl buffer pH 7.5 containing 5 mM MgCl2, 0.1 mg/ml of bovine serum albumin and either 800 Bq ^3HcAMP or ^3HcGMP. The final concentration of the nucleotides in question is 10^−6 mol/l. The reaction is initiated by addition of the enzyme and the amount of enzyme is such that during the incubation time of 30 min, approximately 50% of the substrate is converted. To test the cGMP-stimulated PDE II, ^3HcAMP is used as substrate and 10^−6 mol/l of non-labelled cGMP are added to the mixture. To test the Ca-calmodulin-dependent PDE I, 1 μM of CaCl2 and 0.1 μM of calmodulin are added to the reaction mixture. The reaction is quenched by addition of 100 μL of acetonitrile, containing 1 mM cAMP and 1 mM AMP. 100 μl of the reaction mixture are separated by HPLC and the cleavage products are determined quantitatively on-line using a continuous scintillation counter. The substance concentration measured is the concentration at which the reaction rate is reduced by 50%. Additionally, the “phodiesterase [^3H] cAMP-SPA enzyme assay” and the “phosphodiesterase [^3H] cGMP-SPA enzyme assay” from Amersham Life Science were used for testing. The test was carried out according to the test protocol of the manufacturer. To determine the activity of PDE2, the [^3H] cAMP-SPA assay was used, and 10^−6 M cGMP were added to the reaction mixture to activate the enzyme. To measure PDE1, 10^−7 M calmodulin and 1 μM CaCl2 were added to the reaction mixture. PDE5 was measured using the [^3H] cGMP-SPA assay.

The target in a further series is T2, c-GMP-specific PDE V (Bos taurus, UniProt Q28156).
T2 construct: porcine aorta, human platelets and, preferably, from bovine aorta; from tissue; host or cells: porcine small intestine, porcine aorta, human platelets or, preferably, bovine aorta
The series can be described thus: Inhibition of the phosphodiesterases in vitro: PDE V. It counts as biochemical, porcine, human platelets or, preferably, bovine aorta. Particulars: 3HcGMP substrate 10^-6 mol/l. How it is done:
as §1, §2

Series [1] deals with T3, Ca2+-calmodulin-stimulated PDE I.
T3 construct: The Ca^2+-calmodulin-stimulated PDE I was isolated from porcine aorta, porcine brain or, preferably, from bovine aorta
Briefly: Inhibition of the phosphodiesterases in vitro: PDE I. It counts as biochemical, porcine or bovine (preferably bovine aorta). The note with it: 1 μM CaCl2 and 0.1 μM calmodulin added; substrate 10^-6 mol/l. How it is done: as §1, §2

The term IC50 denotes the point on the concentration scale where inhibition reaches its midpoint. A high value points to a need for much substance. For the compound `CC(CCCc1ccccc1)n1nnc2c(=O)[nH]c(Cc3ccc(S(=O)(=O)NCCO)cc3)nc21` (stereo not shown) [Example 23, N-(2-Hydroxyethyl)-4-[3-(1-methyl-4-phenyl-butyl)-7-oxo-6,7-dihydro-3H-[1,2,3]triazolo[4,5-d]pyrimidin-5-ylmethyl]benzenesulphonamide], the IC50 is 100 nM on c-GMP-stimulated PDE II, > 1000 nM at c-GMP-specific PDE V and 100 nM in series [1].
Consider `CNS(=O)(=O)c1ccc(Cc2nc3c(nnn3C(C)CCCc3ccccc3)c(=O)[nH]2)cc1` (stereo not shown) [Example 19, N-Methyl-4-[3-(1-methyl-4-phenyl-butyl)-7-oxo-6,7-dihydro-3H-[1,2,3]-triazolo-[4,5-d]pyrimidin-5-ylmethyl]-benzenesulphonamide], for which the IC50 on c-GMP-stimulated PDE II is 200 nM; against c-GMP-specific PDE V, > 1000 nM; in series [1] it was 200 nM.
As to `COc1ccc(Cc2nc3c(nnn3C(CCCc3ccccc3)C(C)O)c(=O)[nH]2)cc1OC` (stereo not shown) [Example 31, 5-(3,4-Dimethoxy-benzyl)-3-[1-(1-hydroxy-ethyl)-4-phenyl-butyl]-3,6-dihydro-[1,2,3]triazolo[4,5-d]pyrimidin-7-one], the IC50 at c-GMP-stimulated PDE II was 40 nM; at c-GMP-specific PDE V, > 1000 nM; in series [1], > 1000 nM.
By melting point is commonly meant the temperature, or range, at which the solid turns liquid. Regarding `CC(CCCc1ccccc1)n1nnc2c(=O)[nH]c(Cc3ccccc3)nc21` (stereo not shown) [Example 4, 5-Benzyl-3-(1-methyl-4-phenyl-butyl)-3,6-dihydro-[1,2,3]triazolo[4,5-d]pyrimidin-7-one], the melting point amounted to 112 °C.
Regarding `COc1ccc(Cc2nc3c(nnn3C(C)CCCc3ccccc3)c(=O)[nH]2)cc1OC` (stereo not shown) [Example 5, 5-(3,4-Dimethoxy-benzyl)-3-(1-methyl-4-phenyl-butyl)-3,6-dihydro-[1,2,3]triazolo-[4,5-d]pyrimidin-7-one], the IC50 at c-GMP-stimulated PDE II was 80 nM; at c-GMP-specific PDE V, 500 nM; in series [1], 500 nM.
Turning to `CC(O)C(CCCc1ccccc1)n1nnc2c(=O)[nH]c(Cc3ccc4c(c3)OCO4)nc21` (stereo not shown) [Example 30, 5-Benzo[1,3]dioxol-5-ylmethyl-3-[1-(1-hydroxy-ethyl)-4-phenyl-butyl]-3,6-dihydro-[1,2,3]triazolo[4,5-d]pyrimidin-7-one], the IC50 was 300 nM against c-GMP-stimulated PDE II, ≥ 1000 nM on c-GMP-specific PDE V and 500 nM in series [1].
